Measured values: patent publication US20250188075A1, “SUBSTITUTED HETEROCYCLIC CSNK1 INHIBITORS” (The Broad Institute, Inc., priority 2022, published 2025)

Biological target: human Ether-a-go-go-Related Gene (hERG) potassium channel (Homo sapiens (Human), UniProt Q12809)
Test: hERG inhibition assay, automated voltage clamp
Assay type: cell-based
Details: HEK293 cells stably expressing hERG alpha subunit
Method: Following harvest, cells were transferred to the cell reservoir of a 384 channel automated patch clamp device and stored there at 20° C. until usage.
Upon start of the automated voltage clamp procedure, hERG cells were transferred to a 384 well patch clamp chip (pipette resistance of ˜[…] (2) prefilled with external solution (containing in mM: 143 NaCl, 4 KCl, 2 CaCl2), 1 MgCl2, 5 glucose, 10 HEPES; pH 7.4 (NaOH)). Underpressure was applied underneath the glass bottom of the patch clamp chip to position the hERG cells on the recording sites in the glass bottom of the chip. Following successful cell catch, underpressure was stopped and a seal enhancing solution (containing in mM: 78 NaCl, 60 NMDG, 4 KCl, 10 CaCl2), 1 MgCl2, 5 glucose, 10 HEPES; pH 7.4 (HCl)) was added to the hERG cells to facilitate the formation of stable seals between the membranes of the hERG cells and the glass next to the recording sites. Then, hERG cells were washed several times with wash solution (containing in mM: 87 NaCl, 60 NMDG, 4 KCl, 2 CaCl2), 1 MgCl2, 5 glucose, 10 HEPES; pH 7.4 (HCl)) to remove excess seal enhancing solution. In the meantime, the membrane parts of the hERG cells covering the recording sites were exposed to internal solution (containing in mM: 10 NaCl, 123 KF, 10 EGTA, 10 HEPES; pH 7.2 (KOH)) supplemented with 5-20 μM Escin, and the perforated patch configuration was established. Next, the holding potential was stepwise adjusted to −80 mV, capacitance was compensated, and a series of defined voltage commands was initiated to trigger the hERG current response from the hERG cells (−80 mV for 200 ms, +20 mV for 1000 ms, −40 mV for 500 ms; repeated at a frequency of 0.1 Hz). To determine whether the test item inhibits hERG, different solutions were sequentially applied to the hERG cells: First, a negative control (i.e. wash solution supplemented with 0.3% DMSO and 0.01% HSA) was applied for at least 3 min to investigate the basic electrophysiological properties of the hERG cells as well as define their standard current response. Next, a solution containing the test item at a final concentration of (0.1, 1, or 10) μM was applied for 10 min to measure eventual inhibitory effects of the test item on the hERG current (—the test item solution was produced from a 10 mM DMSO stock by using an automated pipetting device and sequential dilution). Finally, a positive control (i.e. wash solution supplemented with 0.3% DMSO, 0.01% HSA, and 10 μM quinidine) was added to the cells for ˜3 min to block the hERG current and, thereby, define the maximum inhibition. For data analysis, experimental results were processed using the automated patch clamp device-specific software as well as a custom-made software, and TIBCO Spotfire. For each successful recording, hERG tail current amplitudes were averaged from three consecutive current responses at the end of the negative control phase, test item phase, and positive control phase, respectively. Resulting mean hERG tail current amplitudes were normalized to the mean hERG tail current amplitude at the end of the negative control phase with nominal 0% inhibition as well as the hERG tail current amplitude at the end of the positive control phase with nominal 100% inhibition. Then, the effect of the test item was calculated as a percentage inhibition value at the test item concentration applied. Finally, percentage inhibition values from all successful recordings at a particular test item concentration were averaged and combined to construct a standard sigmoidal dose response curve, determine the half maximal inhibitory concentration (IC50) of the test item as well as extrapolate its IC20.

Chain of human Ether-a-go-go-Related Gene (hERG) potassium channel (Q12809 whole entry): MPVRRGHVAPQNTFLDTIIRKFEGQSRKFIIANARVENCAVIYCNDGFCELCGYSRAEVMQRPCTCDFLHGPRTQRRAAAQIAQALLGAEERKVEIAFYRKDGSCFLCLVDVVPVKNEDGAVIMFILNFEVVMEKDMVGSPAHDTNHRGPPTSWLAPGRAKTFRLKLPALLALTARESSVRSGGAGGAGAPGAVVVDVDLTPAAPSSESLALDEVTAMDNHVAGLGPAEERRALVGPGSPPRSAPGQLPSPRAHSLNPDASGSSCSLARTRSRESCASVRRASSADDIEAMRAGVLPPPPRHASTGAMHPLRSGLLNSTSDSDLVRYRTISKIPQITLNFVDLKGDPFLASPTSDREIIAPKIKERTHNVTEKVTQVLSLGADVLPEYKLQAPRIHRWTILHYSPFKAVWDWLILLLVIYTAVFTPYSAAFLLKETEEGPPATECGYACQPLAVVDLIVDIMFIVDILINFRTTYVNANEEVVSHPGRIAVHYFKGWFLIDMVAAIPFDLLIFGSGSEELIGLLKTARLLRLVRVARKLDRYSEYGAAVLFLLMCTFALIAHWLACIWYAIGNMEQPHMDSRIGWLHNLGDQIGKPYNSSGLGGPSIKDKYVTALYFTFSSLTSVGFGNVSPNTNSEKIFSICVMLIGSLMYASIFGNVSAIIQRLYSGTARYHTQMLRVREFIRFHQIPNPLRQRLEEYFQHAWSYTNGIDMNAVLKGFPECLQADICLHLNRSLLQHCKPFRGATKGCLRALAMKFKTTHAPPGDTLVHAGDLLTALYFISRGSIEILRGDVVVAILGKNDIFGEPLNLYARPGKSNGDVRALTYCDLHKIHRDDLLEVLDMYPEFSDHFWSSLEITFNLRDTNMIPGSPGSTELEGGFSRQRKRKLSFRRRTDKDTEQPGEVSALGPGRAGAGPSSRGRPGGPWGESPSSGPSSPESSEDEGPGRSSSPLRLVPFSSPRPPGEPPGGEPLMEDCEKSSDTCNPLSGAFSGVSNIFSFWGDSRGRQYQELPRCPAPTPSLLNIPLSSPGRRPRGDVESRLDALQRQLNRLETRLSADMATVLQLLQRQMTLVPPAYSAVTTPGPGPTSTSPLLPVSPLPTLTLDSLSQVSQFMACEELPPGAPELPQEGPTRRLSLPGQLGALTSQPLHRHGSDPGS

Structure (SMILES)	IC50 [µM]
Cn1nc(CC(=O)Nc2cc(-c3[nH]c4cccnc4c3-c3ccccn3)ccn2)cc1C(F)(F)F [Example 21, 2-[1-methyl-5-(trifluoromethyl)pyrazol-3-yl]-N-[4-[3-(2-pyridyl)-^1H-pyrrolo[3,2-b]pyridin-2-yl]-2-pyridyl]acetamide]	0.81
O=C(Cc1cnc2ccccc2n1)Nc1cc(-c2[nH]c3cccnc3c2-c2ccccn2)ccn1 [Example 6, N-[4-[3-(2-pyridyl)-^1H-pyrrolo[3,2-b]pyridin-2-yl]-2-pyridyl]-2-quinoxalin-2-yl-acetamide]	5.35
O=C(Cc1cnco1)Nc1cc(-c2[nH]c3cccnc3c2-c2ccccn2)ccn1 [Example 4]	> 10
O=C(Cc1cc2ccccn2n1)Nc1cc(-c2[nH]c3cccnc3c2-c2ccccn2)ccn1 [Example 15, 2-pyrazolo[1,5-a]pyridin-2-yl-N-[4-[3-(2-pyridyl)-^1H-pyrrolo[3,2-b]pyridin-2-yl]-2-pyridyl]acetamide]	1.45
Cc1nc(C)c(CC(=O)Nc2cc(-c3[nH]c4cccnc4c3-c3ccccn3)ccn2)s1 [Example 18, 2-(2,4-dimethylthiazol-5-yl)-N-[4-[3-(2-pyridyl)-^1H-pyrrolo[3,2-b]pyridin-2-yl]-2-pyridyl]acetamide]	2.05
CC(C)n1ccc(CC(=O)Nc2cc(-c3[nH]c4cccnc4c3-c3ccccn3)ccn2)n1 [Example 28, 2-(1-isopropylpyrazol-3-yl)-N-[4-[3-(2-pyridyl)-^1H-pyrrolo[3,2-b]pyridin-2-yl]-2-pyridyl]acetamide]	8.69
Cc1nc(CC(=O)Nc2cc(-c3[nH]c4cccnc4c3-c3ccccn3)ccn2)cs1 [Example 3, 2-(2-methylthiazol-4-yl)-N-[4-[3-(2-pyridyl)-^1H-pyrrolo[3,2-b]pyridin-2-yl]-2-pyridyl]acetamide]	5.98
